# Test system: Pseudomonas aeruginosa PAM1001
# Experiment: microbe, parasite or virus in culture
# Type: cell-based
# Procedure, shortened: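 Checkerboard broth microdilution (NCCLS) with the efflux pump inhibitor and levofloxacin, each diluted along one axis of the plate, in Mueller Hinton Broth. Inoculum 5×10^5 CFU/ml from early-log culture; incubation 20 h at 35° C. Growth read at 650 nm and visually.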
# [1] = Table 1, EPI Conc. μg/ml (number not given; column between 10 and 40 μg/ml)
# [2] = Table 2, EPI Conc. μg/ml (number not given; column between 10 and 40 μg/ml)
# [3] = Table 3, EPI Conc. μg/ml (number not given; column between 10 and 40 μg/ml)
# [4] = Table 4, EPI Conc. μg/ml (number not given; column between 10 and 40 μg/ml)
Substance,"Levofloxacin MIC Against P. aeruginosa PAM1001 in Presence of Efflux Pump Inhibitor (EPI), Minimum Inhibitory Concentration (Table 1, EPI Conc. 0 μg/ml) [µg/mL]","Levofloxacin MIC Against P. aeruginosa PAM1001 in Presence of Efflux Pump Inhibitor (EPI), Minimum Inhibitory Concentration (Table 1, EPI Conc. 0.625 μg/ml) [µg/mL]","Levofloxacin MIC Against P. aeruginosa PAM1001 in Presence of Efflux Pump Inhibitor (EPI), Minimum Inhibitory Concentration (Table 1, EPI Conc. 5 μg/ml) [µg/mL]","Levofloxacin MIC Against P. aeruginosa PAM1001 in Presence of Efflux Pump Inhibitor (EPI), Minimum Inhibitory Concentration (Table 1, EPI Conc. 10 μg/ml) [µg/mL]","Levofloxacin MIC Against P. aeruginosa PAM1001 in Presence of Efflux Pump Inhibitor (EPI), Minimum Inhibitory Concentration (Table 1, EPI Conc. 40 μg/ml) [µg/mL]","Levofloxacin MIC Against P. aeruginosa PAM1001 in Presence of Efflux Pump Inhibitor (EPI), Minimum Inhibitory Concentration [1] [µg/mL]","Levofloxacin MIC Against P. aeruginosa PAM1001 in Presence of Efflux Pump Inhibitor (EPI), Minimum Inhibitory Concentration (Table 2, EPI Conc. 0 μg/ml) [µg/mL]","Levofloxacin MIC Against P. aeruginosa PAM1001 in Presence of Efflux Pump Inhibitor (EPI), Minimum Inhibitory Concentration (Table 2, EPI Conc. 0.625 μg/ml) [µg/mL]","Levofloxacin MIC Against P. aeruginosa PAM1001 in Presence of Efflux Pump Inhibitor (EPI), Minimum Inhibitory Concentration (Table 2, EPI Conc. 5 μg/ml) [µg/mL]","Levofloxacin MIC Against P. aeruginosa PAM1001 in Presence of Efflux Pump Inhibitor (EPI), Minimum Inhibitory Concentration (Table 2, EPI Conc. 10 μg/ml) [µg/mL]","Levofloxacin MIC Against P. aeruginosa PAM1001 in Presence of Efflux Pump Inhibitor (EPI), Minimum Inhibitory Concentration (Table 2, EPI Conc. 40 μg/ml) [µg/mL]","Levofloxacin MIC Against P. aeruginosa PAM1001 in Presence of Efflux Pump Inhibitor (EPI), Minimum Inhibitory Concentration (Table 2, EPI Conc. […]) [µg/mL]","Levofloxacin MIC Against P. aeruginosa PAM1001 in Presence of Efflux Pump Inhibitor (EPI), Minimum Inhibitory Concentration [2] [µg/mL]","Levofloxacin MIC Against P. aeruginosa PAM1001 in Presence of Efflux Pump Inhibitor (EPI), Minimum Inhibitory Concentration (Table 3, EPI Conc. 0 μg/ml) [µg/mL]","Levofloxacin MIC Against P. aeruginosa PAM1001 in Presence of Efflux Pump Inhibitor (EPI), Minimum Inhibitory Concentration (Table 3, EPI Conc. 0.625 μg/ml) [µg/mL]","Levofloxacin MIC Against P. aeruginosa PAM1001 in Presence of Efflux Pump Inhibitor (EPI), Minimum Inhibitory Concentration (Table 3, EPI Conc. 5 μg/ml) [µg/mL]","Levofloxacin MIC Against P. aeruginosa PAM1001 in Presence of Efflux Pump Inhibitor (EPI), Minimum Inhibitory Concentration (Table 3, EPI Conc. 10 μg/ml) [µg/mL]","Levofloxacin MIC Against P. aeruginosa PAM1001 in Presence of Efflux Pump Inhibitor (EPI), Minimum Inhibitory Concentration (Table 3, EPI Conc. 40 μg/ml) [µg/mL]","Levofloxacin MIC Against P. aeruginosa PAM1001 in Presence of Efflux Pump Inhibitor (EPI), Minimum Inhibitory Concentration [3] [µg/mL]","Levofloxacin MIC Against P. aeruginosa PAM1001 in Presence of Efflux Pump Inhibitor (EPI), Minimum Inhibitory Concentration (Table 4, EPI Conc. 0 μg/ml) [µg/mL]",other results
Phenylalanyl-Nα -methylornithine 2-(naphthylmethyl)amide [Compound 17 (Table 1)],4,4,0.25,0.125,0.125,0.06,4,4,4,2,0.03,4,0.50,4,4,4,2,0.25,1,4,"Levofloxacin MIC Against P. aeruginosa PAM1001 in Presence of Efflux Pump Inhibitor (EPI), Minimum Inhibitory Concentration (Table 3, EPI Conc. […]): 4 µg/mL; Levofloxacin MIC Against P. aeruginosa PAM1001 in Presence of Efflux Pump Inhibitor (EPI), Minimum Inhibitory Concentration (Table 4, EPI Conc. 0.625 μg/ml): 4 µg/mL; Levofloxacin MIC Against P. aeruginosa PAM1001 in Presence of Efflux Pump Inhibitor (EPI), Minimum Inhibitory Concentration (Table 4, EPI Conc. 5 μg/ml): 0.50 µg/mL; Levofloxacin MIC Against P. aeruginosa PAM1001 in Presence of Efflux Pump Inhibitor (EPI), Minimum Inhibitory Concentration (Table 4, EPI Conc. 10 μg/ml): 0.125 µg/mL; Levofloxacin MIC Against P. aeruginosa PAM1001 in Presence of Efflux Pump Inhibitor (EPI), Minimum Inhibitory Concentration (Table 4, EPI Conc. 40 μg/ml): 0.125 µg/mL; Levofloxacin MIC Against P. aeruginosa PAM1001 in Presence of Efflux Pump Inhibitor (EPI), Minimum Inhibitory Concentration [4]: 0.125 µg/mL"
D-Ornithyl-β-(N-phenylpropyl)alanine 2-naphthylamide [Compound 20 (Table 3)],4,4,4,2,0.25,1,4,4,2,1,0.03,4,0.50,4,4,2,0.50,0.015,0.03,4,"Levofloxacin MIC Against P. aeruginosa PAM1001 in Presence of Efflux Pump Inhibitor (EPI), Minimum Inhibitory Concentration (Table 1, EPI Conc. […]): 4 µg/mL; Levofloxacin MIC Against P. aeruginosa PAM1001 in Presence of Efflux Pump Inhibitor (EPI), Minimum Inhibitory Concentration (Table 3, EPI Conc. […]): 4 µg/mL; Levofloxacin MIC Against P. aeruginosa PAM1001 in Presence of Efflux Pump Inhibitor (EPI), Minimum Inhibitory Concentration (Table 4, EPI Conc. 0.625 μg/ml): 4 µg/mL; Levofloxacin MIC Against P. aeruginosa PAM1001 in Presence of Efflux Pump Inhibitor (EPI), Minimum Inhibitory Concentration (Table 4, EPI Conc. 5 μg/ml): 2 µg/mL; Levofloxacin MIC Against P. aeruginosa PAM1001 in Presence of Efflux Pump Inhibitor (EPI), Minimum Inhibitory Concentration (Table 4, EPI Conc. 10 μg/ml): 2 µg/mL; Levofloxacin MIC Against P. aeruginosa PAM1001 in Presence of Efflux Pump Inhibitor (EPI), Minimum Inhibitory Concentration (Table 4, EPI Conc. 40 μg/ml): 1 µg/mL; Levofloxacin MIC Against P. aeruginosa PAM1001 in Presence of Efflux Pump Inhibitor (EPI), Minimum Inhibitory Concentration (Table 4, EPI Conc. […]): 4 µg/mL; Levofloxacin MIC Against P. aeruginosa PAM1001 in Presence of Efflux Pump Inhibitor (EPI), Minimum Inhibitory Concentration [4]: 2 µg/mL"
D-Lysyl-β-N-(4-Methylphenethyl)alanine Quinoline-2-amide TFA [Example 22],4,4,2,1,0.125,0.125,4,4,1,0.25,0.03,4,0.06,4,4,1,0.125,0.06,0.03,4,"Levofloxacin MIC Against P. aeruginosa PAM1001 in Presence of Efflux Pump Inhibitor (EPI), Minimum Inhibitory Concentration (Table 1, EPI Conc. […]): 4 µg/mL; Levofloxacin MIC Against P. aeruginosa PAM1001 in Presence of Efflux Pump Inhibitor (EPI), Minimum Inhibitory Concentration (Table 4, EPI Conc. 0.625 μg/ml): 4 µg/mL; Levofloxacin MIC Against P. aeruginosa PAM1001 in Presence of Efflux Pump Inhibitor (EPI), Minimum Inhibitory Concentration (Table 4, EPI Conc. 5 μg/ml): 4 µg/mL; Levofloxacin MIC Against P. aeruginosa PAM1001 in Presence of Efflux Pump Inhibitor (EPI), Minimum Inhibitory Concentration (Table 4, EPI Conc. 10 μg/ml): 2 µg/mL; Levofloxacin MIC Against P. aeruginosa PAM1001 in Presence of Efflux Pump Inhibitor (EPI), Minimum Inhibitory Concentration (Table 4, EPI Conc. 40 μg/ml): 0.50 µg/mL; Levofloxacin MIC Against P. aeruginosa PAM1001 in Presence of Efflux Pump Inhibitor (EPI), Minimum Inhibitory Concentration (Table 4, EPI Conc. […]): 4 µg/mL; Levofloxacin MIC Against P. aeruginosa PAM1001 in Presence of Efflux Pump Inhibitor (EPI), Minimum Inhibitory Concentration [4]: 1 µg/mL"

# From US6114310A, “Efflux pump inhibitors” (priority 1998, dated 2000)
